{
  "source": "patent EP4636093A1",
  "about": "“TARGETING MAPK-ERK PATHWAY FOR ENHANCING NUCLEIC ACID DELIVERY” (priority 2024, dated 2025)",
  "key": {"human T lymphocytes": {"system": "human T lymphocytes", "type": "cell-based", "details": "AAV6 (GFP); 20 µM Vx-11e compared to untreated cells; average, three donors"}, "T cells": {"system": "T cells", "type": "cell-based, Human", "details": "for increase in CAR expression: with vs without 400 nM deucravacitinib"}},
  "note": "Where two headings read alike, the source gives them in different places.",
  "data": [
    {"molecule": "Cc1cnc(Nc2ccc(F)cc2Cl)nc1-c1c[nH]c(C(=O)N[C@H](CO)c2cccc(Cl)c2)c1", "note": "[VX-11e]", "values": [
      {"measurement": "AAV6 mediated transduction efficiency increase", "setting": "human T lymphocytes", "value": "up to 2.1 fold"},
      {"measurement": "optimal doses", "setting": "T cells", "value": 20, "unit": "µM"},
      {"measurement": "VSV-LV mediated transduction efficiency increase", "setting": "T cells; VSV-LV, 20 µM VX-11e, average, three donors", "value": "up to 1.8 fold"}
    ]},
    {"molecule": "CC(C)Nc1cc(-c2c[nH]c(C(=O)N[C@H](CO)c3cccc(Cl)c3)c2)c(Cl)cn1", "note": "[ulixertinib]", "values": [
      {"measurement": "optimal doses", "setting": "T cells", "value": 5, "unit": "µM"}
    ]},
    {"molecule": "Deucravacitinib", "values": [
      {"measurement": "increase in CAR expression", "setting": "T cells; CD4-LV, CD4 T cells, average, three donors", "value": "up to 1.7 fold"},
      {"measurement": "increase in CAR expression", "setting": "T cells; CD8-LV, CD8 T cells, average, three donors", "value": "≤ 3.6", "unit": "fold"},
      {"measurement": "optimal dose", "setting": "T cells; treatment of cells for 24 hours, CAR expression after LV transduction (one donor)", "value": 400, "unit": "nM"}
    ]}
  ]
}
